Structures can show the parent of a compound that is named as a salt.
The compounds below were run against p45MEK (GST-MEK) (Homo sapiens, UniProt Q02750) (assay: Cascade assay for inhibitors of the MAP kinase pathway (in vitro)).
Format: biochemical
Protocol: Incorporation of ^32P into myelin basic protein (MBP) was assayed in the presence of a glutathione S-transferase fusion protein containing p44MAP kinase (GST-MAPK) and a glutathione S-transferase fusion protein containing p45MEK (GST-MEK). The assay solution contained 20 mM HEPES, pH 7.4, 10 mM MgCl2, 1 mM MnCl2, 1 mM EGTA, 50 μM [γ-^32P]ATP, 10 μg GST-MEK, 0.5 μg GST-MAPK and 40 μg MBP in a final volume of 100 μL. […] Compounds were assessed at 10 μM for ability to inhibit incorporation of ^32P.
To ascertain whether compounds were inhibiting GST-MEK or GST MAPK, two additional protocols were employed. In the first protocol, compounds were added to tubes containing GST-MEK, followed by addition of GST-MAPK, MBP and [γ-^32P]ATP. In the second protocol, compounds were added to tubes containing both GST-MEK and GST-MAPK, followed by MBP and [γ-^32P]ATP.

Compound | IC50 [nM]
CC=CCONC(=O)c1ccc(F)c(F)c1Nc1ccc(I)cc1C [Example 74, N-(But-2-enyloxy)-3,4-difluoro-2-(4-iodo-2-methyl-phenylamino)-benzamide] | 35
CN(C)CCONC(=O)c1cc(Br)c(F)c(F)c1Nc1ccc(I)cc1Cl [Example 91, 5-Bromo-2-(2-chloro-4-iodo-phenylamino)-N-(2-dimethylamino-ethoxy)-3,4-difluoro-benzamide monohydrochloride salt] | 20
Cc1cc(I)ccc1Nc1cc(F)ccc1C(=O)NOCCOc1ccccc1 [Example 59, 4-Fluoro-2-(4-iodo-2-methyl-phenylamino)-N-(2-phenoxy-ethoxy)-benzamide] | 259
Cc1cc(I)ccc1Nc1c(C(=O)NOCC#Cc2cccc(F)c2)ccc(F)c1F [Example 34, 3,4-Difluoro-N-[3-(3-fluoro-phenyl)-prop-2-ynyloxy]-2-(4-iodo-2-methyl-phenylamino)-benzamide] | 113
Cc1cc(I)ccc1Nc1ccc(Cl)cc1C(=O)N(C)O [Example 5, 5-Chloro-N-hydroxy-2-(4-iodo-2-methyl-phenylamino)-N-methyl-benzamide] | 566
CCCONC(=O)c1ccc(F)cc1Nc1ccc(I)cc1C [Example 42, 4-Fluoro-2-(4-iodo-2-methyl-phenylamino)-N-propoxy-benzamide] | 87
C#CC(C)ONC(=O)c1ccc(F)c(F)c1Nc1ccc(Br)cc1C (stereo not shown) [Example 28, 2-(4-Bromo-2-methyl-phenylamino)-3,4-difluoro-N-(1-methyl-prop-2-ynyloxy)-benzamide] | 728
C#CCONC(=O)c1ccc(F)c(F)c1Nc1ccc(I)cc1C [Example 71, 3,4-Difluoro-2-(4-iodo-2-methyl-phenylamino)-N-(prop-2-ynyloxy)-benzamide] | 15
O=C(NOCC1CC1)c1cc(Br)c(F)c(F)c1Nc1ccc(I)cc1Cl [Example 96, 5-Bromo-2-(2-chloro-4-iodo-phenylamino)-N-cyclopropylmethoxy-3,4-difluoro-benzamide] | < 10
CCONC(=O)c1cc(Br)c(F)c(F)c1Nc1ccc(I)cc1C [Example 17, 5-Bromo-N-ethoxy-3,4-difluoro-2-(4-iodo-2-methyl-phenylamino)-benzamide] | 14
CC=CCONC(=O)c1ccc(F)c(F)c1Nc1ccc(Br)cc1C [Example 70, 2-(4-Bromo-2-methyl-phenylamino)-N-(but-2-enyloxy)-3,4-difluoro-benzamide] | 224
Cc1cc(I)ccc1Nc1c(C(=O)NOCCN2CCOCC2)cc(Br)c(F)c1F [Example 97, 5-Bromo-3,4-difluoro-2-(4-iodo-2-methyl-phenylamino)-N-(2-morpholin-4-yl-ethoxy)-benzamide] | 15
Cc1cc(I)ccc1Nc1c(C(=O)NOC(C)C)cc(Br)c(F)c1F [Example 49, 5-Bromo-3,4-difluoro-2-(4-iodo-2-methyl-phenylamino)-N-isopropoxy-benzamide] | 85
O=C(NO)c1ccc(F)cc1Nc1ccc(I)cc1Cl [Example 87, 2-(2-Chloro-4-iodo-phenylamino)-4-fluoro-N-hydroxy-benzamide (HCl salt)] | < 1
Cc1cc(I)ccc1Nc1cc(F)ccc1C(=O)NOCC1CC1 [Example 55, N-Cyclopropylmethoxy-4-fluoro-2-(4-iodo-2-methyl-phenylamino)-benzamide] | 47
Cc1cc(I)ccc1Nc1cc(F)ccc1C(=O)NOCc1ccccc1 [Example 12, 4-Fluoro-2-(4-iodo-2-methyl-phenylamino)-N-phenylmethoxy-benzamide] | 826
CCONC(=O)c1ccc(F)c(F)c1Nc1ccc(Br)cc1C [Example 41, 2-(4-Bromo-2-methyl-phenylamino)-N-ethoxy-3,4-difluoro-benzamide] | 236
C=C(C)CONC(=O)c1ccc(F)cc1Nc1ccc(I)cc1C [Example 65, 4-Fluoro-2-(4-iodo-2-methyl-phenylamino)-N-(2-methyl-allyloxy)-benzamide] | 57
Cc1cc(I)ccc1Nc1c(C(=O)NOCC#Cc2ccccc2F)ccc(F)c1F [Example 36, 3,4-Difluoro-N-[3-(2-fluoro-phenyl)-prop-2-ynyloxy]-2-(4-iodo-2-methyl-phenylamino)-benzamide] | 56
Cc1cc(I)ccc1Nc1c(C(=O)NOCCN2CCCCC2)cc(Br)c(F)c1F [Example 85, 3,4-Difluoro-5-bromo-2-(4-iodo-2-methyl-phenylamino)-N-(2-piperidin-1-yl-ethoxy)-benzamide] | 24
Cc1cc(Br)ccc1Nc1c(C(=O)NOCC2CC2)ccc(F)c1F [Example 57, 2-(4-Bromo-2-methyl-phenylamino)-N-cyclopropylmethoxy-3,4-difluoro-benzamide] | 181
C#CCCONC(=O)c1ccc(F)c(F)c1Nc1ccc(I)cc1C [Example 29, N-(But-3-ynyloxy)-3,4-difluoro-2-(4-iodo-2-methyl-phenylamino)-benzamide] | 76

Compound | IC50 [nM]
Cc1cc(I)ccc1Nc1c(C(=O)NOCC#Cc2ccccc2)ccc(F)c1F [Example 32, 3,4-Difluoro-2-(4-iodo-2-methyl-phenylamino)-N-(3-phenyl-prop-2-ynyloxy)-benzamide] | 17
C#CCONC(=O)c1ccc(F)cc1Nc1ccc(I)cc1C [Example 25, 4-Fluoro-2-(4-iodo-2-methyl-phenylamino)-N-(prop-2-ynyloxy)-benzamide] | 102
C=C(C)CONC(=O)c1ccc(F)c(F)c1Nc1ccc(I)cc1C [Example 66, 3,4-Difluoro-2-(4-iodo-2-methyl-phenylamino)-N-(2-methyl-allyloxy)-benzamide] | 16
Cc1cc(F)ccc1Nc1cc(F)ccc1C(=O)NO [Example 8, 4-Fluoro-N-hydroxy-2-(4-fluoro-2-methyl-phenylamino)-benzamide] | 7130
O=C(NOC1CCCCO1)c1ccc(F)c(F)c1Nc1ccc(I)cc1Cl (stereo not shown) [Example 90, 3,4-Difluoro-2-(2-chloro-4-iodo-phenylamino)-N-(tetrahydro-pyran-2-yloxy)-benzamide] | 55
CCONC(=O)c1ccc(F)c(F)c1Nc1ccc(I)cc1C [Example 40, N-Ethoxy-3,4-difluoro-2-(4-iodo-2-methyl-phenylamino)-benzamide] | 28
Cc1cc(I)ccc1Nc1c(C(=O)NOC2CCCCO2)ccc(F)c1F (stereo not shown) [Example 83, 3,4-Difluoro-2-(4-iodo-2-methyl-phenylamino)-N-(tetrahydro-pyran-2-yloxy)-benzamide] | 31
Cc1cc(I)ccc1Nc1c(C(=O)NOC2CCC2)ccc(F)c1F [Example 50, N-Cyclobutyloxy-3,4-difluoro-2-(4-iodo-2-methyl-phenylamino)-benzamide] | 43
Cc1cc(Br)ccc1Nc1c(C(=O)NOCc2cccs2)ccc(F)c1F [Example 64, 2-(4-Bromo-2-methyl-phenylamino)-3,4-difluoro-N-(thiophen-2-ylmethoxy)-benzamide] | 279
4-Fluoro-2-(4-iodo-2-methyl-phenylamino)-N-phenylmethoxy-benzamide [Example 77] | 280
Cc1cc(I)ccc1Nc1cc(F)ccc1C(=O)NOCc1cccs1 [Example 62, 4-Fluoro-2-(4-iodo-2-methyl-phenylamino)-N-(thiophen-2-ylmethoxy)-benzamide] | 86
CC=CCONC(=O)c1ccc(F)cc1Nc1ccc(I)cc1C [Example 68, N-(But-2-enyloxy)-4-fluoro-2-(4-iodo-2-methyl-phenylamino)-benzamide] | 119
Cc1cc(Br)ccc1Nc1c(C(=O)NOCc2ccoc2)ccc(F)c1F [Example 22, 2-(4-Bromo-2-methyl-phenylamino)-3,4-difluoro-N-(furan-3-ylmethoxy)-benzamide] | 137
Cc1cc(I)ccc1Nc1c(C(=O)NOCc2ccoc2)cc(Br)c(F)c1F [Example 23, 5-Bromo-3,4-difluoro-N-(furan-3-ylmethoxy)-2-(4-iodo-2-methyl-phenylamino)-benzamide] | 16
CCCONC(=O)c1cc(Br)c(F)c(F)c1Nc1ccc(I)cc1C [Example 45, 5-Bromo-3,4-difluoro-2-(4-iodo-2-methyl-phenylamino)-N-propoxy-benzamide] | 126
CONC(=O)c1ccc(F)c(F)c1Nc1ccc(I)cc1C [Example 14, 3,4-Difluoro-2-(4-iodo-2-methyl-phenylamino)-N-methoxy-benzamide] | 61
Cc1cc(I)ccc1Nc1cc(F)c([N+](=O)[O-])cc1C(=O)NO [Example 81, 4-Fluoro-N-hydroxy-2-(4-iodo-2-methyl-phenylamino)-5-nitro-benzamide] | 17
CCCONC(=O)c1ccc(F)c(F)c1Nc1ccc(Br)cc1C [Example 44, 2-(4-Bromo-2-methyl-phenylamino)-3,4-difluoro-N-propoxy-benzamide] | 475
O=C(NOC1CCCCO1)c1cc(Br)c(F)c(F)c1Nc1ccc(I)cc1Cl (stereo not shown) [Example 94, 5-Bromo-2-(2-chloro-4-iodo-phenylamino)-3,4-difluoro-N-(tetrahydro-pyran-2-yloxy)-benzamide] | 38
CCN(CC)CCONC(=O)c1cc(Br)c(F)c(F)c1Nc1ccc(I)cc1C [Example 98, 5-Bromo-N-(2-diethylamino-ethoxy)-3,4-difluoro-(4-iodo-2-methyl-phenylamino)-benzamide] | 25
C#CCCONC(=O)c1ccc(F)c(F)c1Nc1ccc(Br)cc1C [Example 30, 2-(4-Bromo-2-methyl-phenylamino)-N-(but-3-ynyloxy)-3,4-difluoro-benzamide] | 971

Reference: patent publication US7169816B2, “4-bromo or 4-iodo phenylamino benzhydroxamic acid derivatives and their use as MEK inhibitors” (Warner-Lambert Company, priority 1997, dated 2007)
